Source: patent publication US20250059166A1, “PIPERIDINYLPYRIDINYLCARBONITRILE DERIVATIVES AS INHIBITORS OF GLUTAMINYL-PEPTIDE CYCLOTRANSFERASE AND GLUTAMINYL-PEPTIDE CYCLOTRANSFERASE LIKE PROTEIN” (Boehringer Ingelheim International GmbH, priority 2023, published 2025)
Where two headings read alike, the source gives them in different places.

How the values were obtained:
QPCT = molecular target: T1, QPCT (Homo sapiens, UniProt Q16769); experiment: Assay A: biochemical QPCT activity assay (MALDI-TOF MS, CD47 peptide substrate); details: compounds of the invention; 0.5 nM enzyme, 20 μM CD47 peptide substrate; read-out: Inhibition of QPCT: IC50
T1 construct: purchased Origine (so in the source)
T1 sequence (Q16769 29-361): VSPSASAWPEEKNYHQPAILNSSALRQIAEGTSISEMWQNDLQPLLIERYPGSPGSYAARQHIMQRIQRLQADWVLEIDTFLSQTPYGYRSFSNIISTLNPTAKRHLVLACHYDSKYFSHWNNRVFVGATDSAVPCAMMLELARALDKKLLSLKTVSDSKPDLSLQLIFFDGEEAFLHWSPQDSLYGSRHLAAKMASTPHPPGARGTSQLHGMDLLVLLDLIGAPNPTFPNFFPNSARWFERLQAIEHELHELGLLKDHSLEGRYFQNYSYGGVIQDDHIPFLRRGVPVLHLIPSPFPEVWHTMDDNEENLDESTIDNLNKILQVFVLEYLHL
Protocol: (§1) QPCT or QPCTL dependent conversion of N-terminal glutamine to pyroglutamate of CD47 was monitored via MALDI-TOF MS. Test compounds were dissolved in 100% DMSO and serially diluted into clear 1,536-well microtiter plates. Enzymatic reactions were set up in assay buffer containing 20 mM Tris pH 7.5, 0.1 mM TCEP, 0.01% BSA, and 0.001% Tween20. […] The plates were incubated for 10 min in a humidified incubator at 24° C. Subsequently, 2.5 μL of CD47 peptide substrate surrogate (^19[…]^33) was added to each well (final concentration: 10 μM for QPCTL/20 μM for QPCT). The plates were mixed for 30 sec at 1,000 rpm and subsequently incubated for 40 min in a humidified incubator at 24° C. […] The plates were sealed with an adhesive foil, mixed for 30 s at 1,000 rpm and stored at room temperature until preparation of the MALDI target plates. […] QPCT or QPCTL activity was monitored by calculating the ratio between product and internal standard signals followed by normalization to high (100% activity) and low (0% activity) controls. Determination of compound potencies was obtained by fitting the dose-response data to a four-parameter logistical equation.

[1] = tested on: SIRPα signalling induced by A549 cells; experiment: Assay B: SIRPα signalling assay using A549 cells; type: cell-based; details: Homo sapiens
Protocol: (§2) Two cell types are independently used: the Raji cell line (lymphoblast-like human cell line derived from B lymphocytes from a Burkitt's lymphoma patient in 1963) and A549 cells (adenocarcinoma human alveolar basal epithelial cells).
(§3) Test compounds were dissolved in 100% DMSO and serially diluted into a white 384-well microtiter cell culture plate (PerkinElmer #60076780 in case of Raji assay; PDL-coated plates Greiner #781945 in case of A549 assay). 5000 Raji cells (ATCC #CC86) or 5000 A549 cells (ATCC #CCL-185) in Assay Complete Cell Plating reagent 30 (DiscoverX 93-0563R30B) were added per well. The assay plate was incubated for 48 h at 37° C., 95% humidity and 5% CO2. 15000 reporter cells (Jurkat PathHunter SIRPαV1, DiscoverX #93-1135C19) were added to each well, and the plate was incubated for 5 h at 37° C., 95% humidity and 5% CO2. Bioassay reagent 1 of the PathHunter Bioassay detection kit (DiscoverX 93-0001) was added to each well of the plate using a multichannel pipette followed by a 15 min incubation at room temperature. Afterwards bioassay reagent 2 was added followed by 60 min incubation at room temperature (incubation in the dark).
(§4) The analysis of the data was performed using the luminescence signal generated by beta-galactosidase in the PathHunter reporter cell line. The luminescence measurement was done using a Pherastar Multi-Mode Reader. Dose-response curves & IC50 data were calculated with 4-parameter sigmoidal dose response formula.

[2] = Assay C: permeability in CACO-2 cells; type: in vitro ADME; details: human
Protocol: Caco-2 cells (1-2×10^5 cells/1 cm^2 area) are seeded on filter inserts (Costar transwell polycarbonate or PET filters, 0.4 μm pore size) and cultured (DMEM) for 10 to 25 days. Compounds are dissolved in appropriate solvent (like DMSO, 1-20 mM stock solutions). […] The transport solution (TL) is applied to the apical or basolateral donor side for measuring A-B or B-A permeability (3 filter replicates), respectively. Samples are collected at the start and end of experiment from the donor and at various time intervals for up to 2 hours also from the receiver side for concentration measurement by HPLC-MS/MS or scintillation counting. Sampled receiver volumes are replaced with fresh receiver solution.
Efflux ratio(ER)=permeabilityB−A/permeabilityA−B

QPCTL = molecular target: T2, QPCTL (Homo sapiens, UniProt Q9NXS2); experiment: Assay A: biochemical QPCTL activity assay (MALDI-TOF MS, CD47 peptide substrate); details: compounds of the invention; 0.5 nM enzyme, 10 μM CD47 peptide substrate; read-out: Inhibition of QPCTL: IC50
T2 construct: made in house
T2 sequence (Q9NXS2 whole entry): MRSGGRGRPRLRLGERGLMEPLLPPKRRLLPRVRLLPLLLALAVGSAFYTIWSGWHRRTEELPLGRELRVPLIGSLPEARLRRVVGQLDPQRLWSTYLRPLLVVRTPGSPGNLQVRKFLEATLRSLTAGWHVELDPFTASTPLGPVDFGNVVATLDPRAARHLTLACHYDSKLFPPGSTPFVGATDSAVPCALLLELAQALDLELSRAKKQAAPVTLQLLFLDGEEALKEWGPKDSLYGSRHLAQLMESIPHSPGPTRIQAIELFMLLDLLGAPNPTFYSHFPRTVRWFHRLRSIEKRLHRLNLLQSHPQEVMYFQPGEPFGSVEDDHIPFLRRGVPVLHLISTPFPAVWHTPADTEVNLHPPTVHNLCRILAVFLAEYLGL
Protocol: as §1

[3] = tested on: SIRPα signalling induced by Raji cells; experiment: Assay B: SIRPα signalling assay using Raji cells; type: cell-based; details: Homo sapiens, read-out: Inhibition of SIRPα signalling induced by Raji cells: IC50
Protocol: as §2, §3, §4

[4] = compounds of the invention, A549 cells 48 h, Jurkat PathHunter SIRPαV1 reporter cells 5 h, read-out: Inhibition of SIRPα signalling induced by A549 cells: IC50
[5] = pH 7.2, compounds of the invention, Caco-2, permeability B-A / permeability A-B
[6] = compounds of the invention, Caco-2, apical to basolateral, pH 7.2
[7] = compounds of the invention, Raji cells 48 h, Jurkat PathHunter SIRPαV1 reporter cells 5 h

Cc1cc(C#N)c(N2CCC(F)(c3nncn3C)CC2)c(-c2cnc3nn(C(C)(C)C)c(C(F)(F)F)c3c2)n1 [Example 27]
IC50 (QPCT): 2 nM
IC50 [1, 4]: 34 nM
efflux ratio at 2 h [2, 5]: 2.4
Papp A→B at 2 h [2, 6]: 38 ×10⁻⁶ cm/s
IC50 (QPCTL): 2 nM
IC50 [3, 7]: 26 nM

Cn1cnnc1C1(F)CCN(c2c(C#N)ccnc2-c2cnc3nn(C(C)(C)C)nc3c2)CC1 [Example 17]
IC50 (QPCT): 2 nM
IC50 [1, 4]: 40 nM
efflux ratio at 2 h [2, 5]: 13.9
Papp A→B at 2 h [2, 6]: 7.2 ×10⁻⁶ cm/s
IC50 (QPCTL): 2 nM
IC50 [3, 7]: 102 nM

Cc1cc(C#N)c(N2CCC(F)(c3nncn3C)CC2)c(-c2cnc3nn(C(C)(C)C)c(F)c3c2)n1 [Example 25]
IC50 (QPCT): 1 nM
IC50 [1, 4]: 7 nM
efflux ratio at 2 h [2, 5]: 9.9
Papp A→B at 2 h [2, 6]: 7.6 ×10⁻⁶ cm/s
IC50 (QPCTL): 1 nM
IC50 [3, 7]: 9 nM

CC(C)n1nc2ncc(-c3nc(C4CC4)cc(C#N)c3N3CCC(F)(c4nncn4C)CC3)cc2c1F [Example 30]
IC50 (QPCT): 1 nM
IC50 [1, 4]: 20 nM
efflux ratio at 2 h [2, 5]: 9.4
Papp A→B at 2 h [2, 6]: 9.4 ×10⁻⁶ cm/s
IC50 (QPCTL): 1 nM
IC50 [3, 7]: 25 nM

Cn1cnnc1C1(F)CCN(c2c(C#N)cc(C3CC3)nc2-c2cnc3nn(C(C)(C)C)c(F)c3c2)CC1 [Example 29]
IC50 (QPCT): 1 nM
IC50 [1, 4]: 45 nM
efflux ratio at 2 h [2, 5]: 2.7
Papp A→B at 2 h [2, 6]: 29 ×10⁻⁶ cm/s
IC50 (QPCTL): 1 nM
IC50 [3, 7]: 17 nM

Cn1cnnc1C1(F)CCN(c2c(C#N)cc(C(F)(F)F)nc2-c2cnc(F)cc2Cl)CC1 [Example 10]
IC50 (QPCT): 27 nM
IC50 [1, 4]: 201 nM
efflux ratio at 2 h [2, 5]: 1.2
Papp A→B at 2 h [2, 6]: 58 ×10⁻⁶ cm/s
IC50 (QPCTL): 10 nM
IC50 [3, 7]: 352 nM

Cn1cnnc1C1(F)CCN(c2c(C#N)ccnc2-c2cnc3nn(C(F)(F)F)nc3c2)CC1 [Example 18]
IC50 (QPCT): 52 nM
IC50 [1, 4]: 292 nM
efflux ratio at 2 h [2, 5]: 2.8
Papp A→B at 2 h [2, 6]: 27 ×10⁻⁶ cm/s
IC50 (QPCTL): 33 nM
IC50 [3, 7]: 942 nM

Cn1cnnc1C1(F)CCN(c2c(C#N)cc(C(F)(F)F)nc2-c2cnc3nn(C(C)(C)C)c(F)c3c2)CC1 [Example 2]
IC50 (QPCT): 1 nM
IC50 [1, 4]: 53 nM
efflux ratio at 2 h [2, 5]: 4.9
Papp A→B at 2 h [2, 6]: 16 ×10⁻⁶ cm/s
IC50 (QPCTL): 1 nM
IC50 [3, 7]: 17 nM

Cn1cnnc1C1(F)CCN(c2c(C#N)ccnc2-c2cnc(F)cc2Cl)CC1 [Example 22]
IC50 (QPCT): 15 nM
IC50 [1, 4]: 218 nM
efflux ratio at 2 h [2, 5]: 1.6
Papp A→B at 2 h [2, 6]: 34 ×10⁻⁶ cm/s
IC50 (QPCTL): 5 nM
IC50 [3, 7]: 435 nM

Cn1cnnc1C1(F)CCN(c2c(C#N)cc(C(F)(F)F)nc2-c2cnc3nn(C(C)(C)C(F)(F)F)cc3c2)CC1 [Example 6]
IC50 (QPCT): 2 nM
IC50 [1, 4]: 50 nM
efflux ratio at 2 h [2, 5]: 10.1
Papp A→B at 2 h [2, 6]: 7.2 ×10⁻⁶ cm/s
IC50 (QPCTL): 2 nM
IC50 [3, 7]: 26 nM

Cn1cnnc1C1(F)CCN(c2c(-c3cnc4nn(C(C)(C)C)cc4c3)ncc(Cl)c2C#N)CC1 [Example 38]
IC50 (QPCT): < 1 nM
IC50 [1, 4]: 6 nM
efflux ratio at 2 h [2, 5]: 10.9
Papp A→B at 2 h [2, 6]: 6.6 ×10⁻⁶ cm/s
IC50 (QPCTL): 1 nM
IC50 [3, 7]: 21 nM

Cn1cnnc1C1CCN(S(=O)(=O)c2cccc(Nc3ccc(OCc4ccccc4)nc3)c2)CC1 [Compound 23]
IC50 ([1]; prior art compounds, A549 cells 48 h, Jurkat PathHunter SIRPαV1 reporter cells 5 h, read-out: Inhibition of SIRPα signalling induced by A549 cells: IC50): > 10000 nM
IC50 ([3]; prior art compounds, Raji cells 48 h, Jurkat PathHunter SIRPαV1 reporter cells 5 h): > 10000 nM

Cn1cnnc1C1(F)CCN(c2c(C#N)cc(C(F)(F)F)nc2-c2cnc3nn(C(C)(C)C)cc3c2)CC1 [Example 1]
IC50 (QPCT): 1 nM
IC50 [1, 4]: 17 nM
efflux ratio at 2 h [2, 5]: 6.4
Papp A→B at 2 h [2, 6]: 5.3 ×10⁻⁶ cm/s
IC50 (QPCTL): 1 nM
IC50 [3, 7]: 9 nM

Cn1cnnc1C1(F)CCN(c2c(C#N)cc(C3CC3)nc2-c2ccc(F)nc2)CC1 [Example 31]
IC50 (QPCT): 4 nM
IC50 [1, 4]: 41 nM
efflux ratio at 2 h [2, 5]: 1.4
Papp A→B at 2 h [2, 6]: 62 ×10⁻⁶ cm/s
IC50 (QPCTL): 2 nM
IC50 [3, 7]: 87 nM

Cn1cnnc1C1(F)CCN(c2c(C#N)cc(C(F)(F)F)nc2-c2cnc3nn(C(C)(C)C)c(Cl)c3c2)CC1 [Example 3]
IC50 (QPCT): 1 nM
IC50 [1, 4]: 28 nM
efflux ratio at 2 h [2, 5]: 1
Papp A→B at 2 h [2, 6]: 47 ×10⁻⁶ cm/s
IC50 (QPCTL): 1 nM
IC50 [3, 7]: 14 nM

Cn1cnnc1C1CCN(c2ncccc2-c2ccc(F)nc2)CC1 [SEN177, reference compound]
IC50 ([1]; A549, read-out: Inhibition of SIRPα signalling induced by A549 cells: IC50): 214 nM
Papp A→B at 2 h ([2]; Caco-2, pH 7.2): 11 ×10⁻⁶ cm/s
IC50 ([3]; Raji): 1360 nM

Cn1cnnc1C1(F)CCN(c2c(C#N)cc(C(F)(F)F)nc2-c2cnc3nn(C(C)(C)C)nc3c2)CC1 [Example 8]
IC50 (QPCT): 4 nM
IC50 [1, 4]: 29 nM
efflux ratio at 2 h [2, 5]: 2.6
Papp A→B at 2 h [2, 6]: 31 ×10⁻⁶ cm/s
IC50 (QPCTL): 5 nM
IC50 [3, 7]: 67 nM

Cn1cnnc1C1(F)CCN(c2c(C#N)cc(C(F)(F)F)nc2-c2cnc3nn(C(C)(C)C)c(C(F)(F)F)c3c2)CC1 [Example 4]
IC50 (QPCT): 5 nM
IC50 [1, 4]: 46 nM
efflux ratio at 2 h [2, 5]: 0.6
Papp A→B at 2 h [2, 6]: 99.5 ×10⁻⁶ cm/s
IC50 (QPCTL): 9 nM
IC50 [3, 7]: 31 nM

Nc1ncc(C2CCN(c3ncccc3-c3ccc(F)nc3)CC2)s1 [Compound 1094]
Papp A→B at 2 h ([2]; Caco-2, pH 7.2): 73 ×10⁻⁶ cm/s
efflux ratio at 2 h ([2]; Caco-2, pH 7.2): 1

Cn1cnnc1C1CCN(c2ncccc2-c2cccnc2)CC1 [SEN180, reference compound]
Papp A→B at 2 h ([2]; Caco-2, pH 7.2): 4.2 ×10⁻⁶ cm/s

Nc1nnc(C2CCN(c3ncccc3-c3ccc(F)nc3)CC2)s1 [Compound 1095]
Papp A→B at 2 h ([2]; Caco-2, pH 7.2): 68 ×10⁻⁶ cm/s
efflux ratio at 2 h ([2]; Caco-2, pH 7.2): 0.5
